Measured values as given in patent US10562936B2, “Ligands for integrin αvβ6, synthesis and uses thereof” (Technische Universitat Munchen, priority 2015, dated 2020).
Like-named read-outs stand apart in the source and are kept apart here. Square brackets hold non-standard residues; d marks the D form. Peptide text beside a SMILES is read from it. dNMeK = CN[C@H](CCCCN)C(=O)O

B1: Compound 7, cyclic peptide A R G D L d L p P (peptide)
peptide: cyclo(ARGDL[dD]L[dP]P)
SMILES: CC(C)C[C@@H]1NC(=O)[C@H](CC(=O)O)NC(=O)CNC(=O)[C@H](CCCNC(=N)N)NC(=O)[C@H](C)NC(=O)[C@@H]2CCCN2C(=O)[C@H]2CCCN2C(=O)[C@H](CC(C)C)NC(=O)[C@@H](CC(=O)O)NC1=O
notes: Comparative compound (*)
B2: Compound 16, cyclic peptide A R G D L A L (NMe)k P (peptide)
peptide: cyclo(ARGDLAL[dNMeK]P)
notes: Comparative compound (*)
B3: Compound 4, cyclic peptide A R G D L A L p P (peptide)
peptide: cyclo(ARGDLAL[dP]P)
SMILES: CC(C)C[C@@H]1NC(=O)[C@H](CC(=O)O)NC(=O)CNC(=O)[C@H](CCCNC(=N)N)NC(=O)[C@H](C)NC(=O)[C@@H]2CCCN2C(=O)[C@H]2CCCN2C(=O)[C@H](CC(C)C)NC(=O)[C@H](C)NC1=O
notes: also called Cpd
B4: Compound 9, cyclic peptide A R G D F A L p P (peptide)
peptide: cyclo(ARGDFAL[dP]P)
SMILES: CC(C)C[C@@H]1NC(=O)[C@H](C)NC(=O)[C@H](Cc2ccccc2)NC(=O)[C@H](CC(=O)O)NC(=O)CNC(=O)[C@H](CCCNC(=N)N)NC(=O)[C@H](C)NC(=O)[C@@H]2CCCN2C(=O)[C@H]2CCCN2C1=O
notes: Comparative compound (*)
B5: Compound 12, cyclic peptide F R G D L A L p P (peptide)
peptide: cyclo(FRGDLAL[dP]P)
SMILES: CC(C)C[C@@H]1NC(=O)[C@H](CC(=O)O)NC(=O)CNC(=O)[C@H](CCCNC(=N)N)NC(=O)[C@H](Cc2ccccc2)NC(=O)[C@@H]2CCCN2C(=O)[C@H]2CCCN2C(=O)[C@H](CC(C)C)NC(=O)[C@H](C)NC1=O
notes: also called Cpd; 12

Columns and labels:
αvβ3 = target: T1, αvβ3 (Homo sapiens, UniProt P05106+P06756); assay: Solid-phase integrin binding assay, αvβ3 (coated Vitronectin)
T1 construct: using coated extracellular matrix proteins and soluble integrins
T1 sequence (P06756 31-992 limits assumed): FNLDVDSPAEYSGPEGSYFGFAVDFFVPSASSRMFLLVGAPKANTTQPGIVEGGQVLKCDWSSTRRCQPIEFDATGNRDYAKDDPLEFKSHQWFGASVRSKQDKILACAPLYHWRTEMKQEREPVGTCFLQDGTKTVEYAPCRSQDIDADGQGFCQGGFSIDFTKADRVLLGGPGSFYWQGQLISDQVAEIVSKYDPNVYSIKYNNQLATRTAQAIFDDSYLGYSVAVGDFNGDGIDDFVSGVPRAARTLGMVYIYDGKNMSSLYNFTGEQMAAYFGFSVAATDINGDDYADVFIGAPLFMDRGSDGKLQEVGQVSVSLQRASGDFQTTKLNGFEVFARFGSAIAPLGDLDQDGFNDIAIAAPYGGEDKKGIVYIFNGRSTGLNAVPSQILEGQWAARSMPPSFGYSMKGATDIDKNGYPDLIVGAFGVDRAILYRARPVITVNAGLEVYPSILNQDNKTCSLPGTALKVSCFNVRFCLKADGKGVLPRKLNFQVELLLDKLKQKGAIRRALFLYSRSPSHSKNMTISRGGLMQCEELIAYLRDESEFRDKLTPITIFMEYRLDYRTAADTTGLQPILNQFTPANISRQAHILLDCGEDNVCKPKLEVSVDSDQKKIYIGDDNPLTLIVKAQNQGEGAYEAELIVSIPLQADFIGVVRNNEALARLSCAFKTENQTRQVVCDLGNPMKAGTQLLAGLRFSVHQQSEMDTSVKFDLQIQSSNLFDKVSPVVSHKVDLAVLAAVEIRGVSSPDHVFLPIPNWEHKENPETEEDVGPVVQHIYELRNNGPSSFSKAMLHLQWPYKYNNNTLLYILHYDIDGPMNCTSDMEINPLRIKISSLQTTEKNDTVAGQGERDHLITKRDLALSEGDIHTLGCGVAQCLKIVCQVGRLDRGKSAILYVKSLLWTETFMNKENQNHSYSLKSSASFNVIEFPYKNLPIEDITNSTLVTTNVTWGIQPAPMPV
T1 sequence (P05106 27-718 limits assumed): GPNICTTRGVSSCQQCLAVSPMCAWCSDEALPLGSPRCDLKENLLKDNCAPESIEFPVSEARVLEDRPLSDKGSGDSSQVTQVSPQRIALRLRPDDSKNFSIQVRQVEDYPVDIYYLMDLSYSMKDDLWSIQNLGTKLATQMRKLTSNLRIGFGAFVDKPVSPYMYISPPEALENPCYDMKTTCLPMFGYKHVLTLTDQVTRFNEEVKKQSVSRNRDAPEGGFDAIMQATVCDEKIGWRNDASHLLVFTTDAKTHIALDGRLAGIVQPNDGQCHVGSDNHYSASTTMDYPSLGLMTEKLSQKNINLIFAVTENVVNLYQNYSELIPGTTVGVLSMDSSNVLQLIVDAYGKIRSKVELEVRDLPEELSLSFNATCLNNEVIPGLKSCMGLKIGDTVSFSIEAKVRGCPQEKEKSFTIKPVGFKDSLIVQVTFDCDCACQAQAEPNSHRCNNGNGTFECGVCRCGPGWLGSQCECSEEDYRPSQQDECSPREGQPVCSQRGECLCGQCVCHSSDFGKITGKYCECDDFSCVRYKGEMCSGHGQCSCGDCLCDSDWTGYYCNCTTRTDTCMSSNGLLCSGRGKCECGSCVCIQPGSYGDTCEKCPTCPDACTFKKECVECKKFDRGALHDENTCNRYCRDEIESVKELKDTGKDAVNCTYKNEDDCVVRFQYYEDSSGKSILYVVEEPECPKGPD
Procedure: (§1) The activity and selectivity of integrin ligands were determined by a solid-phase binding assay according to the previously reported protocols using coated extracellular matrix proteins and soluble integrins: Fibronectin (Fn) for α5β1, latent activating protein (LAP) for αvβ6 and αvβ8, Vitronectin (Vn) for αvβ3 and αvβ5, Fibrinogen (Fbg) for aIIbβ3.

αvβ5 = target: T2, αvβ5 (Homo sapiens, UniProt P06756+P18084); assay: Solid-phase integrin binding assay, αvβ5 (coated Vitronectin)
T2 construct: using coated extracellular matrix proteins and soluble integrins
Procedure: as §1

αIIbβ3 = target: T3, αIIbβ3 (Homo sapiens, UniProt P05106+P08514); assay: Solid-phase integrin binding assay, αIIbβ3 (coated Fibrinogen)
T3 construct: using coated extracellular matrix proteins and soluble integrins
T3 sequence (P08514 32-1039): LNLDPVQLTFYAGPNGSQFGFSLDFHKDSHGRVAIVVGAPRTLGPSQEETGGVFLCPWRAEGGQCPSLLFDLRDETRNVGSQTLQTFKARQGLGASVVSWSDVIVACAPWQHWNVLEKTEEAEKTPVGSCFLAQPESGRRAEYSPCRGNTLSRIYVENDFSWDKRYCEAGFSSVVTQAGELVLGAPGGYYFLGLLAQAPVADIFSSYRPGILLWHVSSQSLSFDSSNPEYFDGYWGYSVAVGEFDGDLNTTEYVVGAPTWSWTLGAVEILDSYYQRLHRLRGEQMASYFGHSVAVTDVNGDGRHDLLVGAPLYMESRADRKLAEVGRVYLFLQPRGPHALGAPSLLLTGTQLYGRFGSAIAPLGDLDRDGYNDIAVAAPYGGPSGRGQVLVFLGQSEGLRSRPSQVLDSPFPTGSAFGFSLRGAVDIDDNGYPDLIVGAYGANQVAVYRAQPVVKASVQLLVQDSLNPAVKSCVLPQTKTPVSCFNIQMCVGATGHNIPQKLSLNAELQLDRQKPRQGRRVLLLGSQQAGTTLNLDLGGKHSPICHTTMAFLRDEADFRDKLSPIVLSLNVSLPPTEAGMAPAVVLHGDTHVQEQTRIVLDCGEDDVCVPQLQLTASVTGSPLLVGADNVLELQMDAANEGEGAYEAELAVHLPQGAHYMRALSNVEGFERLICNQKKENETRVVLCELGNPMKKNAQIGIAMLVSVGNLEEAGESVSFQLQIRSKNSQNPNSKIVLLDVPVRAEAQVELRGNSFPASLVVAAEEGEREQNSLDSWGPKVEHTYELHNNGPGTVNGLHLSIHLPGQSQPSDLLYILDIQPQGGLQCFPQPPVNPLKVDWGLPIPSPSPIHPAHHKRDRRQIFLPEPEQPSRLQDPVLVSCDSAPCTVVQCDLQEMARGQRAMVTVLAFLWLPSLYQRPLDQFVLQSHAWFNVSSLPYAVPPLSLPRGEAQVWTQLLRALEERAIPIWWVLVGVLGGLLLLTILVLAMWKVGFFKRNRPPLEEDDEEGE
T3 sequence (P05106 27-788): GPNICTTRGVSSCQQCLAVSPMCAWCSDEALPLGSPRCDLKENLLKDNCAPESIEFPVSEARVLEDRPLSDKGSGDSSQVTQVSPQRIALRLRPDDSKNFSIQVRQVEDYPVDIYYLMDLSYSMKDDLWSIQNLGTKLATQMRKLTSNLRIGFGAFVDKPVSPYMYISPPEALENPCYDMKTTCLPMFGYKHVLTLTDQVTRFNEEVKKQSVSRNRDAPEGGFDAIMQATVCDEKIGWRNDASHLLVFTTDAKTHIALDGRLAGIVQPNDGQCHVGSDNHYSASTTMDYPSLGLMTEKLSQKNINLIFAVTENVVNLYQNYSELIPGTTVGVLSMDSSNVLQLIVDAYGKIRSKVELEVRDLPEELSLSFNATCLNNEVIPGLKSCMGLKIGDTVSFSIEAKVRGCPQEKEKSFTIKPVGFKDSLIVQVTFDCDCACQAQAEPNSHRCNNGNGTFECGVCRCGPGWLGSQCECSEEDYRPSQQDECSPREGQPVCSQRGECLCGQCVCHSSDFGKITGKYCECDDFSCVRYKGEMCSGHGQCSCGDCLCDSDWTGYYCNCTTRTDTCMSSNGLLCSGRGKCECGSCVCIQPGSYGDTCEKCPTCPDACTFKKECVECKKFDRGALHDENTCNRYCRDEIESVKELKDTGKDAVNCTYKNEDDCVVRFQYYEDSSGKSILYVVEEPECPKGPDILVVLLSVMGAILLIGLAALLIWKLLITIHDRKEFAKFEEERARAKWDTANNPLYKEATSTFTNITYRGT
Procedure: as §1

αvβ6 = αvβ6 (Homo sapiens, UniProt P06756+P18564); assay: Solid-phase integrin binding assay, αvβ6 (coated LAP, soluble integrin); parameters: using coated extracellular matrix proteins and soluble integrins
Procedure: as §1

[1] = target: T4, integrin αvβ6 (soluble integrin) (UniProt P06756 31-992; P18564 22-707); assay: solid-phase binding assay, competition; coated LAP, soluble αvβ6
T4 construct: Only 'soluble integrins' is said
T4 sequence (P06756 31-992, chain 1 of 2): as the sequence (P06756 31-992 limits assumed) above
T4 sequence (P18564 22-707, chain 2 of 2): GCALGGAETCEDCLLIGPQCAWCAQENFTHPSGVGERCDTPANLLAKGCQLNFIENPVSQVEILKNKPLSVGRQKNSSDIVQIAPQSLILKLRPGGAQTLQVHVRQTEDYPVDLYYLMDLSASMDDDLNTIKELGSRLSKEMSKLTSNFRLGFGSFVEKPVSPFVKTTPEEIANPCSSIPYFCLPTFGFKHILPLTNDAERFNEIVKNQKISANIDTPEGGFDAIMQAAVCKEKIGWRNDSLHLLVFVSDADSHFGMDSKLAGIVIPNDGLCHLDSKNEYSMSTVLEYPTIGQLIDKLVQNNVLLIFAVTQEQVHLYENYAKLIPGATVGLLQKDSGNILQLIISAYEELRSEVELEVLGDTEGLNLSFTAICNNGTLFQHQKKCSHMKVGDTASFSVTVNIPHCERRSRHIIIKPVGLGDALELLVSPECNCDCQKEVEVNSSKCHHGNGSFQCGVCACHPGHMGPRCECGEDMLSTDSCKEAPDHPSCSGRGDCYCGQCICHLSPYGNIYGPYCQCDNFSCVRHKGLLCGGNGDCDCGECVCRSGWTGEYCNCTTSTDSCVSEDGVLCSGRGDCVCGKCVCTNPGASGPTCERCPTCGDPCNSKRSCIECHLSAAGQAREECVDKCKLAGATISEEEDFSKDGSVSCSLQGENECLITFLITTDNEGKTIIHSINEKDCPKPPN

[2] = target: T5, integrin αvβ3 (soluble integrin) (UniProt P06756 31-992; P05106 27-718); assay: solid-phase binding assay, competition; coated vitronectin, soluble αvβ3
T5 construct: Only 'soluble integrins' is said
T5 sequence (P06756 31-992, chain 1 of 2): as the sequence (P06756 31-992 limits assumed) above
T5 sequence (P05106 27-718, chain 2 of 2): as the sequence (P05106 27-718 limits assumed) above

[3] = target: T6, integrin α5β1 (soluble integrin) (UniProt P08648 42-995; P05556 21-728); assay: solid-phase binding assay, competition; coated fibronectin, soluble α5β1
T6 construct: Only 'soluble integrins' is said

[4] = target: T7, integrin αvβ8 (soluble integrin) (UniProt P06756 31-992; P26012 43-684); assay: solid-phase binding assay, competition; coated LAP, soluble αvβ8
T7 construct: Only 'soluble integrins' is said
T7 sequence (P06756 31-992, chain 1 of 2): as the sequence (P06756 31-992 limits assumed) above
T7 sequence (P26012 43-684, chain 2 of 2): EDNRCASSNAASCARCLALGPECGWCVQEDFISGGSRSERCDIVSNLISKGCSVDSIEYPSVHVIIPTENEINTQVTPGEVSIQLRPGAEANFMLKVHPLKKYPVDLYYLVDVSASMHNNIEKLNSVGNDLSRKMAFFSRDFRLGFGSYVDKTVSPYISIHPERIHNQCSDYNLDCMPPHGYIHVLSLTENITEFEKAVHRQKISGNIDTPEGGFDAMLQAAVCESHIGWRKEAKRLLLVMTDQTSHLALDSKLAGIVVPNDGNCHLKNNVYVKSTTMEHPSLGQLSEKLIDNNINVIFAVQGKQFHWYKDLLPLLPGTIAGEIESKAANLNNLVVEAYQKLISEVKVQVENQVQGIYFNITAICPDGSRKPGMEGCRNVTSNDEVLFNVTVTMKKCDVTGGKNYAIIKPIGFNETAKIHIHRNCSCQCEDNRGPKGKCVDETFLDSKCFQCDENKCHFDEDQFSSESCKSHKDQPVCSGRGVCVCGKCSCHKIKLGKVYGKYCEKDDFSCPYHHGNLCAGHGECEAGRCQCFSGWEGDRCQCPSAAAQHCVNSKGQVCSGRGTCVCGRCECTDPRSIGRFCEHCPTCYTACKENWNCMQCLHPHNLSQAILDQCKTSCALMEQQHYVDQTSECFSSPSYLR

[5] = target: T5, integrin αvβ3 (soluble integrin); assay: solid-phase binding assay, competition; coated vitronectin, soluble αvβ3; remark: listed apart in the source
[6] = solid-phase binding assay, Vitronectin coated, read-out: αvβ3, IC50
[7] = solid-phase binding assay, Vitronectin coated, read-out: αvβ5, IC50
[8] = solid-phase binding assay, Fibrinogen coated, read-out: αIIbβ3, IC50

Molecule	IC50 (αvβ3; [6]) [nM]	IC50 (αvβ5; [7]) [nM]	IC50 (αIIbβ3; [8]) [nM]	IC50 (αvβ6) [nM]	also measured
CC(C)C[C@@H]1NC(=O)[C@H](CC(=O)O)NC(=O)CNC(=O)[C@H](CCCNC(=N)N)NC(=O)[C@H](C)NC(=O)[C@@H]2CCCN2C(=O)[C@H]2CCCN2C(=O)[C@H](CC(C)C)NC(=O)[C@@H](CC(=O)O)NC1=O [Compound 7, A R G D L d L p P] (cyclo(ARGDL[dD]L[dP]P))	> 1000	–	–	–	–
CC(=O)NCCCC[C@H]1C(=O)N[C@@H](Cc2ccccc2)C(=O)N[C@@H](CCCNC(=N)N)C(=O)NCC(=O)N[C@@H](CC(=O)O)C(=O)N[C@@H](CC(C)C)C(=O)N[C@@H](C)C(=O)N[C@@H](Cc2ccccc2)C(=O)N2CCC[C@@H]2C(=O)N1C [Compound 23, F R G D L A F p (NMe)K^[f]]	640	> 1000	> 1000	0.3	–
CC(C)C[C@@H]1NC(=O)[C@H](CC(=O)O)NC(=O)CNC(=O)[C@H](CCCNC(=N)N)NC(=O)[C@H](Cc2ccccc2)NC(=O)[C@@H]2CCCN2C(=O)[C@H]2CCCN2C(=O)[C@H](CC(C)C)NC(=O)[C@H](C)NC1=O [Compound 12, F R G D L A L p P] (cyclo(FRGDLAL[dP]P))	> 1000	> 1000	> 1000	1.25	–
CC(C)C[C@@H]1NC(=O)[C@H](CC(=O)O)NC(=O)CNC(=O)[C@H](CCCNC(=N)N)NC(=O)[C@H](C)NC(=O)[C@@H]2CCCN2C(=O)[C@H]2CCCN2C(=O)[C@H](CC(C)C)NC(=O)[C@H](C)NC1=O [Compound 4, A R G D L A L p P] (cyclo(ARGDLAL[dP]P))	106	> 1000	> 1000	3	–
CC(C)C[C@@H]1NC(=O)[C@H](CC(=O)O)NC(=O)CNC(=O)[C@H](CCCNC(=N)N)NC(=O)[C@H](C)NC(=O)[C@@H]2CCCN2C(=O)[C@H]2CCCN2C(=O)[C@H](CCCCN)NC(=O)[C@H](C)NC1=O [Compound 11, A R G D L A K p P] (cyclo(ARGDLAK[dP]P))	302	> 1000	> 1000	1.51	–
CC(C)C[C@@H]1NC(=O)[C@H](CC(=O)O)NC(=O)CNC(=O)[C@H](CCCNC(=N)N)NC(=O)[C@H](C)NC(=O)[C@@H]2CCCN2C(=O)[C@H]2CCCN2C(=O)[C@H](CC(C)C)NC(=O)[C@H](C)NC(=O)[C@H](C)NC1=O [Compound 1, A R G D L A A L p P] (cyclo(RGDLAAL[dP]PA))	–	–	–	8.3	IC50 (αvβ5): > 1000 nM; IC50 (αIIbβ3): > 1000 nM; IC50 (αvβ3): 76.7 nM
CC(C)C[C@@H]1NC(=O)[C@H](CC(=O)O)NC(=O)CNC(=O)[C@H](CCCNC(=N)N)NC(=O)[C@H](C)NC(=O)[C@@H]2CCCN2C(=O)[C@H]2CCCN2C(=O)[C@H](Cc2ccccc2)NC(=O)[C@H](C)NC1=O [Compound 10, A R G D L A F p P] (cyclo(ARGDLAF[dP]P))	104	–	–	0.67	–
B1	–	–	–	–	IC50 [1]: 148 nM
B2	–	–	–	–	IC50 [1]: 11.4 nM; IC50 [2]: 50.4 nM
B3	–	–	–	–	IC50 [3]: 266 nM; IC50 [2]: 106 nM; IC50 [4]: 42.9 nM; IC50 [5]: 106 nM
B4	–	–	–	–	IC50 [1]: 63.4 nM; IC50 [2]: 65.2 nM
B5	–	–	–	–	IC50 [3]: 254 nM; IC50 [4]: 127 nM
